Target: T1, PRKCI (PKC iota) (Homo sapiens, UniProt P41743)
T1 construct: purchased Thermo Fisher Scientific (Life Technologies) SelectScreen
Experiment: SelectScreen Z'LYTE
Type: biochemical
How it was run: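 NU5455 was profiled across the SelectScreen Broad panel of kinase activity and binding assays. Z'LYTE reactions such as CSF1R ran at apparent Km ATP, while the Adapta CAMK1 assay used ATP listed as 10. Values are given as percent.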

T1 sequence (P41743 whole entry): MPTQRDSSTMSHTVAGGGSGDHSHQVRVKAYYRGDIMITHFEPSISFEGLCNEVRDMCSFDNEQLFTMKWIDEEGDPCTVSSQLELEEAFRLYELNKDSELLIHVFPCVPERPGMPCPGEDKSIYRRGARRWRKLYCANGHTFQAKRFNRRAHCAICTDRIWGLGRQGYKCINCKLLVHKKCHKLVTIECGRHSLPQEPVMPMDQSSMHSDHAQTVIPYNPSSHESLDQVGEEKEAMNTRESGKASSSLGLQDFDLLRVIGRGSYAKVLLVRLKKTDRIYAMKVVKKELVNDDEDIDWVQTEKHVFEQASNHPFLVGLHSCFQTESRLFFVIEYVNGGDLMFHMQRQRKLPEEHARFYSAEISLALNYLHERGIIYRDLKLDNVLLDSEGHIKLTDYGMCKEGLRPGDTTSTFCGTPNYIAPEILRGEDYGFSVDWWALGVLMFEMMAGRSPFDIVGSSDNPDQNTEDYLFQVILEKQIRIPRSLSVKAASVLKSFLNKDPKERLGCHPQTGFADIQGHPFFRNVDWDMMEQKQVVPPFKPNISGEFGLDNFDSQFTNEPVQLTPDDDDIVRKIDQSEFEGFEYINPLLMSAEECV

For CN(C(=O)CN1CCOCC1)c1ccc2sc3c(-c4cccc5c(=O)cc(N6CC7CCC(C6)O7)oc45)cccc3c2c1 [NU5455], the inhibition at 1 µM was -0.8%.
